Measured values taken from PMC7504039, “Tetrapeptide Ac-HAEE-NH2 Protects α4β2 nAChR from Inhibition by Aβ” (International Journal of Molecular Sciences, 2020).
“Also recorded” adds a separate entry of the source. Like-named read-outs stand apart in the source and are kept apart here. Where a SMILES comes first, the peptide text is derived from it.

Columns and labels:
[1] = molecular target: T1, immobilized Aβ16 (Homo sapiens, UniProt P05067); experiment: Direct binding assay: surface plasmon resonance, tetrapeptides over immobilized Aβ16-G4-C; settings: for Ka × 10^-2 M^-1: 10 mM HEPES pH 6.8, Ka = kon/koff, mean±SD of three independent measurements; for koff: read-out: koff × 10^-3 s^-1
T1 construct: purchased Biopeptide (San Diego, CA, USA); host or cells: chemical synthesis
T1 sequence (P05067 with tags, fused parts or gaps limits assumed): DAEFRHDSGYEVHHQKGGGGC
Experimental: Surface plasmon resonance (SPR) was utilized to detect the direct binding of the tetrapeptides to immobilized Aβ16-G4-C. All SPR experiments were carried out on a BIAcore T100 instrument (GE Healthcare, IL, USA). Research grade sensor chips CM5 carrying the hydrophilic carboxymethylated dextran matrix, HEPES Buffered Saline (HBS) buffer (10 mM HEPES (4-(2-hydroxyethyl)-1-piperazineethanesulfonic acid)), pH 7.4, 150 mM NaCl, 3 mM EDTA, 0.005% surfactant P20), 1-ethyl-3-(3-dimethylaminopropyl)-carbodiimide (EDC), N-hydroxysuccinimide (NHS), 2-(2-pyridinyldithio)-ethaneamine (PDEA), and cysteine were purchased from Biacore (GE, Boston, MA, USA). All other chemicals and solvents were of HPLC-grade or better and were obtained from MilliporeSigma (St. Louis, MO, USA). All buffers were filtered (0.45 μm, nylon) prior to use.
Attachment of the synthetic peptide Aβ16-G4-C to the CM5 chip was performed according to the thiol bond formation protocol described in the Sensor surface handbook (GE Healthcare, Chicago, IL, USA). The carboxymethyl dextran matrix was activated by injection of a 1:1 mixture of EDC and NHS (30 μL, 400 mM EDC, 100 mM NHS) with the following injection of an 80 mM PDEA solution in 0.1 M sodium borate (pH 8.5). The Aβ16-G4-C solution was then injected into the activated flow cell (0.05 mg/mL peptide in 10 mM sodium acetate buffer, pH 4.5). Unreacted disulfide groups on the CM5 chip surface were capped with a 50 mM cysteine solution in 0.1 M sodium acetate buffer (pH 4.0). The change corresponding to the immobilization of Aβ16-G4-C was 1023 response units (RU). The flow rate used for all immobilization steps was 5 μL/min. An unmodified dextran surface was used as a reference surface.
Then, the binding affinities of the immobilized Aβ16-G4-C to the following peptide-analytes were measured. Samples of Ac-HAEE-NH2 and other tetrapeptides were prepared by dilution of respective stock solutions in the running buffer (10 mM HEPES, pH 6.8). Each analyte was diluted to different concentrations (0 μM, 50 μM, 100 μM, 200 μM, 500 μM, 1000 μM, 1500 μM, 2000 μM) and injected in multichannel mode (volume 50 μL and rate 10 μL/min) during 300 s. Then, the chip surface was exposed to the running buffer without analyte for 120 s. After each injection of the analyte, the surface was regenerated with 5 μL of the regeneration buffer (HBS buffer containing 10 mM HEPES, 3 mM EDTA, 0.005% surfactant P20 and 150 mM NaCl, pH 7.4). The signal from the reference surface was subtracted from the raw data, obtained from the flow cell with the immobilized ligand.
The kinetic rate constants were calculated from the sensorgrams by globally fitting the response curves obtained at various analyte concentrations using the Langmuir model (1:1 binding) in the BIAevaluation 4.1 program. The association (kon) and the dissociation (koff) rate constants were fitted simultaneously (1), dR/dt = kon C (Rmax − R) − koff R(1) where R stands for the biosensor response of the formed complex, C is the concentration of the analyte, and Rmax is the maximal theoretical value of the binding response for a given analyte.
Using the obtained data dissociation (Kd) constant was calculated from the ratios of the association (kon) and dissociation (koff) rate constants: Kd = koff/kon, Ka = kon/koff.

[2] = system: Aβ; settings: previously shown; reference not given; cited from earlier work
[3] = system: amyloid load in the brains; parameters: method as in PMID 26402624; settings: injections; cited from earlier work
[4] = system: rat α4β2 nAChR; experiment: Two-electrode voltage clamp in Xenopus laevis oocytes expressing α4β2 nAChR; format: cell-based; settings: for effect of washout with the peptide on current amplitude after Aβ42: 3 min, after 10 µM Aβ42
Experimental: Two-electrode voltage clamp electrophysiology on the α4β2 nAChR expressed in Xenopus laevis oocytes was performed according to previously published protocols [7]. Stage V ± VI Xenopus laevis oocytes were defolliculated with 1 mg/mL collagenase Type I (Life Technologies, Carlsbad, CA, USA) at room temperature (21–24 °C) for 2 h in Barth’s solution without calcium (88.0 mM NaCl, 1.1 mM KCl, 2.4 mM NaHCO3, 0.8 mM MgSO4, 15.0 mM HEPES/NaOH, pH 7.6). The oocytes were stored in Barth’s solution with calcium for 72–120 h (88.0 mM NaCl, 1.1 mM KCl, 2.4 mM NaHCO3, 0.3 mM Ca(NO3)2, 0.4 mM CaCl2, 0.8 mM MgSO4, 15.0 mM HEPES/NaOH, pH 7.6) supplemented with 63.0 μg/mL penicillin-G sodium salt, 40.0 μg/mL streptomycin sulfate.
Oocytes were injected with 3 ng plasmids coding the rat α4 and β2 nAChR subunits (pcDNA3.1 vector) in a molar ratio of 1:1 using an Auto-Nanoliter Injector NanoJect-2 (Drummond Scientific Company, Broomall, PA, USA) in a total injection volume of 23 nL. After injection, oocytes were incubated at 18 °C in Barth’s solution with calcium for 48–120 h. Electrophysiological recordings were made using a Turbo TEC-03X amplifier (npi electronic GmbH, Tamm, Germany) and WinWCP recording software (University of Strathclyde, Glasgow, UK). Oocytes were placed in a small recording chamber with a working volume of 50 μL and 100 μL of agonist (acetylcholine) solution in Barth’s buffer were applied to an oocyte. […] To allow receptor recovery from desensitization, the oocytes were superfused for 5–10 min with buffer (1 mL/min) between ligand applications. Electrophysiological recordings were performed at a holding potential of −60 mV.
Data are presented as means of at least three independent experiments ± SD. The comparison of data groups in electrophysiology studies was performed with ordinary one-way ANOVA. Post-hoc analysis was performed with the Tukey test. Shapiro-Wilk test was used to confirm the normality of the dataset. Statistical analysis was performed using GraphPad Prism 8.4.1 software (GraphPad Software Inc., CA, USA).

[5] = molecular target: Aβ16-G4-C, [Ac]-…-[NH2]; experiment: SPR; Aβ16-G4-C immobilised by thiol coupling on a CM5 chip (1023 RU), BIAcore T100; tetrapeptides injected at 0-2000 μM, 10 μL/min, 300 s; running buffer 10 mM HEPES, pH 6.8; global fit, Langmuir 1:1 model; Kd = koff/kon
[6] = SPR, immobilized Aβ16, 10 mM HEPES pH 6.8
[7] = Table S2, SPR, immobilized Aβ16, 25 °C
[8] = Table S2, SPR, immobilized Aβ16, 25 °C, 10 mM HEPES pH 6.8, mean±SD of three independent measurements, read-out: Kd × 10^4 M
[9] = Table S2, SPR, immobilized Aβ16, 25 °C, 10 mM HEPES pH 6.8, mean±SD of three independent measurements
[10] = Table S2, SPR, immobilized Aβ16, 25 °C, 10 mM HEPES pH 6.8, mean±SD of three independent measurements, read-out: kon × M^-1 s^-1
[11] = SPR, BIAcore T100, Aβ16-G4-C on CM5 chip, running buffer 10 mM HEPES pH 6.8, 1:1 Langmuir global fit, Kd = koff/kon, read-out: dissociation constant Kd

Row | Molecule | Ka × 10^-2 M^-1 [1, 7] | Kd [1, 8] [µM] | koff [1, 9] [s⁻¹] | kon [1, 10] [M⁻¹ s⁻¹] | also measured
1 | CC(=O)N[C@@H](CCCNC(=N)N)C(=O)N[C@@H](C)C(=O)N[C@@H](CCC(=O)O)C(=O)N[C@@H](CCC(=O)O)C(N)=O [Ac-RAEE-NH2] (Ac-RAEE-NH2) | 1.3±0.1 × 10^-2 M^-1 | 7700 ± 600 | 0.0112 ± 8e-05 | 1.5 ± 0.1 | binding to Aβ16 in the SPR assay (in words) [1, 6]: two orders of magnitude weaker binding than Ac-HAEE-NH2
2 | CC(=O)N[C@@H](CCC(=O)O)C(=O)N[C@@H](CC(=O)O)C(=O)N[C@@H](C)C(=O)N[C@@H](CCCNC(=N)N)C(N)=O [#18, Ac-EDAR-NH2] (Ac-EDAR-NH2) | 0.28±0.03 × 10^-2 M^-1 |  | 0.0047 ± 0.0001 | 0.13 ± 0.01 | 
3 | CC(=O)N[C@@H](CC(=O)O)C(=O)N[C@@H](CC(=O)O)C(=O)N[C@@H](C)C(=O)N[C@@H](CCCCN)C(N)=O [#4, Ac-DDAK-NH2] (Ac-DDAK-NH2) | 7.3±0.3 × 10^-2 M^-1 | 1370 ± 50 | 0.0062 ± 0.0001 | 4.57 ± 0.09 | 
4 | CC(=O)N[C@@H](CCCNC(=N)N)C(=O)N[C@@H](C)C(=O)N[C@@H](CC(=O)O)C(=O)N[C@@H](CC(=O)O)C(N)=O [Ac-RADD-NH2] (Ac-RADD-NH2) | 800±100 × 10^-2 M^-1 |  | 0.00024 ± 4e-05 | 18.5 ± 0.1 | Kd [1, 11]: 13 µM
5 | Ac-KAEE-NH2 |  |  |  |  | binding to Aβ16 in the SPR assay (in words) [1, 6]: no binding was detected at all
6 | CC(=O)N[C@@H](CCCCN)C(=O)N[C@@H](C)C(=O)N[C@@H](CC(=O)O)C(=O)N[C@@H](CCC(=O)O)C(N)=O [#15, Ac-KADE-NH2] (Ac-KADE-NH2) | 2.2±0.1 × 10^-2 M^-1 | 4500 ± 300 | 0.0096 ± 0.0002 | 2.2 ± 0.1 | 
7 | CC(=O)N[C@@H](CC(=O)O)C(=O)N[C@@H](CC(=O)O)C(=O)N[C@@H](C)C(=O)N[C@@H](Cc1c[nH]cn1)C(N)=O [#2, Ac-DDAH-NH2] (Ac-DDAH-NH2) |  |  | 0.0154 ± 0.0001 | 0.52 ± 0.01 | Kd ([1]; read-out: Ka × 10^-2 M^-1 (converted)): 2970 µM
8 | CC(=O)N[C@@H](CCCCN)C(=O)N[C@@H](C)C(=O)N[C@@H](CCC(=O)O)C(=O)N[C@@H](CC(=O)O)C(N)=O [#9, Ac-KAED-NH2] (Ac-KAED-NH2) | 3.1±0.6 × 10^-2 M^-1 | 3300 ± 700 | 0.019 ± 0.001 | 5.7 ± 0.9 | 
9 | CC(=O)N[C@@H](CCC(=O)O)C(=O)N[C@@H](CC(=O)O)C(=O)N[C@@H](C)C(=O)N[C@@H](CCCCN)C(N)=O [#16, Ac-EDAK-NH2] (Ac-EDAK-NH2) | 0.141±0.009 × 10^-2 M^-1 |  | 0.0097 ± 0.0002 | 0.136 ± 0.006 | 
10 | CC(=O)N[C@@H](Cc1c[nH]cn1)C(=O)N[C@@H](C)C(=O)N[C@@H](CCC(=O)O)C(=O)N[C@@H](CCC(=O)O)C(N)=O [Ac-HAEE-NH2] (Ac-HAEE-NH2) | 110±40 × 10^-2 M^-1 |  | 3.5e-05 ± 8e-06 |  | zinc-dependent oligomerization of Aβ [2]: prevent zinc-dependent oligomerization of Aβ; Kd [1, 11]: 90 µM; kon ([1]; SPR, immobilized Aβ16, 10 mM HEPES pH 6.8, read-out: kon): 0.37 M⁻¹ s⁻¹; amyloid load in the brains of AD model mice [3]: effectively reduce the amyloid load; effect of washout with the peptide on current amplitude after Aβ42 ([4]; 25 µM in washout buffer, 100 µM ACh): did not affect the current amplitude; effect of washout with the peptide on current amplitude after Aβ42 ([4]; 50 µM in washout buffer, 100 µM ACh): less so at 50 µM; effect on Aβ42-induced inhibition when co-applied with Aβ42 ([4]; 100 µM Ac-HAEE-NH2 (10-times molar excess) with 10 µM Aβ42, 3 min pre-incubation, 100 µM ACh): the degree of inhibition was reduced significantly; also recorded: reduced the inhibitory effect of Aβ42 by half; leakage current after washout with peptide-containing buffer ([4]; 100 µM Ac-HAEE-NH2 washout after 10 µM Aβ42 and buffer washout): reduced the leakage current almost to the control values; effect of washout with the peptide on current amplitude after Aβ42 ([4]; 100 µM in washout buffer, 100 µM ACh): fully revoked the inhibition induced by Aβ42; also recorded: most effective at 100 µM; amplitude of ACh-evoked currents after washout with the peptide (over the range tested) ([4]; 25–100 µM in washout buffer after 10 µM Aβ42, 100 µM ACh): dose-dependently returned to the control levels; also recorded: completely restored the receptor response; effect on ACh-evoked current in the absence of Aβ42 ([4]; α4β2 nAChR-expressing oocytes): did not affect ACh-evoked current; currents induced by the peptide itself ([4]; α4β2 nAChR-expressing oocytes, no ACh): did not induce any currents
11 | CC(=O)N[C@@H](Cc1c[nH]cn1)C(=O)N[C@@H](C)C(=O)N[C@@H](CC(=O)O)C(=O)N[C@@H](CC(=O)O)C(N)=O [#1, Ac-HADD-NH2] (Ac-HADD-NH2) | 3.08±0.08 × 10^-2 M^-1 | 3250 ± 90 | 0.0104 ± 2e-05 | 3.2 ± 0.08 | 
12 | CC(=O)N[C@@H](CC(=O)O)C(=O)N[C@@H](CCC(=O)O)C(=O)N[C@@H](C)C(=O)N[C@@H](CCCNC(=N)N)C(N)=O [#12, Ac-DEAR-NH2] (Ac-DEAR-NH2) | 5.1±0.2 × 10^-2 M^-1 | 1980 ± 70 | 0.00709 ± 9e-05 | 3.58 ± 0.08 | 
13 | Ac-HAEE-NH2 [Ac-HAEE-NH2 tetrapeptide] |  |  |  |  | Kd [5]: 90 µM; koff [5]: 4e-05 s⁻¹; kon [5]: 0.37 M⁻¹ s⁻¹
14 | Ac-RADD-NH2 [Ac-RADD-NH2] |  |  |  |  | Kd [5]: 13 µM
